According to paper PMC8270338, “Exploring New Scaffolds for the Dual Inhibition of HIV-1 RT Polymerase and Ribonuclease Associated Functions” (Molecules, 2021):
Where a name gives a salt, the structure may show the parent alone. Read-outs that look alike come from different tables or passages of the source.

Tests used:
[1] = biological target: T1, HIV-1 RT-associated RNase H (Human immunodeficiency virus type 1 group M subtype B, UniProt P04585); assay: HIV-1 RT-associated DNA polymerase-independent RNase H activity determination; format: biochemical, HIV-1 group M subtype B; conditions: full length HIV-1 wt RT, no pre-incubation with the enzyme, 1 h at 37 °C; concentration reducing RNase H activity by 50%
T1 construct: The full length HIV-1 RT group M subtype B was expressed and purified; made in house
Description: The full length HIV-1 RT group M subtype B was expressed and purified as previously described. The HIV RT-associated RNase H activity was measured as described. […] Reactions were stopped by the addition of EDTA and products were measured with a Perkin–Elmer Victor 3 multilabel counter plate reader (Waltham, MA, USA) at excitation–emission wavelength of 490/528 nm (Table 1).

[2] = biological target: T2, HIV-1 RT-associated RNA-dependent DNA-polymerase (RDDP) (Human immunodeficiency virus type 1 group M subtype B, UniProt P04585); assay: biochemical; design: species or system HIV-1 group M subtype B
T2 construct: The full length HIV-1 RT group M subtype B was expressed and purified; made in house
Description: The HIV-1 RT-associated RNA-Dependent DP activity was measured as previously described. […] The enzymatic reaction was stopped by the addition of EDTA.

Compound | melting point | IC50 [1] [µM] | IC50 ([2]; read-out: RDDP IC50) [µM] | IC50 [2] [µM]
COc1ccc(-c2ccccc2C(N)=O)cc1/C=N/Nc1nc(-c2ccc([N+](=O)[O-])cc2)cs1 (as salt: bromide) [EMAC2063, 2-{3-[(2-{4-[4-nitrophenyl]-1,3-thiazol-2-yl}hydrazin-1-ylidene)methyl]-4-methoxyphenyl}benzamide bromide] | 208 °C (dec.) | – | – | –
COc1ccc(-c2csc(NN=Cc3cc(-c4ccccc4)ccc3OC)n2)cc1 [EMAC2056, 2-[2-[(2-Methoxy-5-Phenylphenyl)methylidene]hydrazin-1-yl]-4-(4-Methoxyphenyl)-1,3-Thiazole Bromide] | – | 19.5 ± 5.5 | 36 ± 5 | –
COc1ccc(-c2ccccc2)cc1C=NNc1nc(-c2ccc(Cl)c(Cl)c2)cs1 [EMAC2057, 4-(3,4-dichlorophenyl)-2-[2-[(2-methoxy-5-phenylphenyl)methylidene]hydrazin-1-yl]-1,3-thiazole bromide] | – | 57 ± 5 | 88 ± 12 | –
COc1ccc(-c2ccccc2)cc1C=NNc1nc(-c2cccc(Cl)c2)cs1 [EMAC2058, 4-(3-chlorophenyl)-2-[2-[(2-methoxy-5-phenylphenyl)methylidene]hydrazin-1-yl]-1,3-thiazole bromide] | – | 46 ± 1 | 56.5 ± 9.5 | –
COc1ccc(-c2ccccc2)cc1C=NNc1nc(-c2ccc([N+](=O)[O-])cc2)cs1 [EMAC2059, 4-(4-nitrophenyl)-2-[2-[(2-methoxy-5-phenylphenyl)methylidene]hydrazin-1-yl]-1,3-thiazole bromide] | – | 12.8 ± 4.3 | 39.5 ± 11.5 | –
COc1ccc(-c2csc(N/N=C/c3cc(-c4ccccc4C(N)=O)ccc3OC)n2)cc1 [EMAC2060, 2-{4-methoxy-3-[(1E)-{2-[4-(4-methoxyphenyl)-1,3-thiazol-2-yl]hydrazin-1-ylidene}methyl]phenyl}benzamide bromide] | – | 21.5 ± 3.5 | 27 ± 1 | –
COc1ccc(-c2ccccc2C(N)=O)cc1C=NNc1nc(-c2ccc(Cl)c(Cl)c2)cs1 [EMAC2061, 2-{3-[{2-[4-(3,4-dichlorophenyl)-1,3-thiazol-2-yl]hydrazin-1-ylidene}methyl]-4-methoxyphenyl}benzamide bromide] | – | 6.5 ± 2.5 | 19.5 ± 0.5 | –
COc1ccc(-c2ccccc2C(N)=O)cc1C=NNc1nc(-c2ccc(Cl)cc2)cs1 [EMAC2062, 2-{3-[{2-[4-(4-chlorophenyl)-1,3-thiazol-2-yl]hydrazin-1-ylidene}methyl]-4-methoxyphenyl}benzamide bromide] | – | 8 ± 2 | 17 ± 2 | –
COc1ccc(-c2ccccc2C(N)=O)cc1/C=N/Nc1nc(-c2ccc([N+](=O)[O-])cc2)cs1 [EMAC2063, 2-{3-[(2-{4-[4-nitrophenyl]-1,3-thiazol-2-yl}hydrazin-1-ylidene)methyl]-4-methoxyphenyl}benzamide bromide] | – | 4.5 ± 0.5 | – | 8
COc1ccc(-c2csc(NN=Cc3cc(-c4ccccc4Br)ccc3OC)n2)cc1 [EMAC2064, 2-{[5-(2-bromophenyl)-2-methoxyphenyl]methylidene}hydrazin-1-yl]-4-(4-methoxyphenyl)-1,3-thiazole bromide] | – | 13 ± 4 | 32.5 ± 2.5 | –
COc1ccc(-c2ccccc2Br)cc1C=NNc1nc(-c2ccc(Cl)c(Cl)c2)cs1 [EMAC2065, 2-{[5-(2-bromophenyl)-2-methoxyphenyl]methylidene}hydrazin-1-yl]-4-(3,4-dicholophenyl)-1,3-thiazole bromide] | – | 15 ± 1 | 53.5 ± 15.5 | –
COc1ccc(-c2ccccc2Br)cc1C=NNc1nc(-c2ccc(Cl)cc2)cs1 [EMAC2066, 2-{[5-(2-bromophenyl)-2-methoxyphenyl]methylidene}hydrazin-1-yl]-4-(4-cholophenyl)-1,3-thiazole bromide] | – | 47 ± 3 | 71.5 ± 6.5 | –
COc1ccc(-c2ccccc2Br)cc1C=NNc1nc(-c2ccc([N+](=O)[O-])cc2)cs1 [EMAC2067, 2-{[5-(2-bromophenyl)-2-methoxyphenyl]methylidene}hydrazin-1-yl]-4-(4-nitrophenyl)-1,3-thiazole bromide] | – | 27 ± 5 | 30 ± 3 | –
COc1ccc(-c2csc(NN=Cc3cc(-c4ccc(F)cc4)ccc3OC)n2)cc1 [EMAC2068, 2-[2-{[5-(4-fluorophenyl)-2-methoxyphenyl]methylidene}hydrazin-1-yl]-4-(4-methoxyphenyl)-1,3-thiazole bromide] | – | 29.5 ± 3.5 | 61.5 ± 8.5 | –
COc1ccc(-c2ccc(F)cc2)cc1C=NNc1nc(-c2ccc(Cl)c(Cl)c2)cs1 [EMAC2069, 4-(3,4-dichlorophenyl)-2-[-2-{[5-(4-fluorophenyl)-2-methoxyphenyl]methylidene}hydrazin-1-yl]-1,3-thiazole bromide] | – | 52.5 ± 10.5 | 66 ± 2 | –
COc1ccc(-c2ccc(F)cc2)cc1C=NNc1nc(-c2ccc(Cl)cc2)cs1 [EMAC2070, 4-(4-chlorophenyl)-2-[-2-{[5-(4-fluorophenyl)-2-methoxyphenyl]methylidene}hydrazin-1-yl]-1,3-thiazole bromide] | – | 55.5 ± 1.5 | 59 ± 6 | –
COc1ccc(-c2ccc(F)cc2)cc1C=NNc1nc(-c2ccc([N+](=O)[O-])cc2)cs1 [EMAC2071, [(4-{2-[2-{[5-(4-fluorophenyl)-2-methoxyphenyl]methylidene}hydrazin-1-yl]-1,3-thiazol-4-yl}phenyl)nitroso]oxidanol bromide] | – | 19 ± 1 | 47.5 ± 11.5 | –
